{"source": "patent US10144734B2", "about": "“Substituted pyrazolo[1,5-A]pyridine compounds as RET kinase inhibitors” (Array BioPharma, Inc., priority 2016, dated 2018)", "target": "HEK-293 cells expressing a Kif5b-RET fusion protein (Homo sapiens, UniProt P07949)", "sequence (P07949 29-1114 limits assumed)": "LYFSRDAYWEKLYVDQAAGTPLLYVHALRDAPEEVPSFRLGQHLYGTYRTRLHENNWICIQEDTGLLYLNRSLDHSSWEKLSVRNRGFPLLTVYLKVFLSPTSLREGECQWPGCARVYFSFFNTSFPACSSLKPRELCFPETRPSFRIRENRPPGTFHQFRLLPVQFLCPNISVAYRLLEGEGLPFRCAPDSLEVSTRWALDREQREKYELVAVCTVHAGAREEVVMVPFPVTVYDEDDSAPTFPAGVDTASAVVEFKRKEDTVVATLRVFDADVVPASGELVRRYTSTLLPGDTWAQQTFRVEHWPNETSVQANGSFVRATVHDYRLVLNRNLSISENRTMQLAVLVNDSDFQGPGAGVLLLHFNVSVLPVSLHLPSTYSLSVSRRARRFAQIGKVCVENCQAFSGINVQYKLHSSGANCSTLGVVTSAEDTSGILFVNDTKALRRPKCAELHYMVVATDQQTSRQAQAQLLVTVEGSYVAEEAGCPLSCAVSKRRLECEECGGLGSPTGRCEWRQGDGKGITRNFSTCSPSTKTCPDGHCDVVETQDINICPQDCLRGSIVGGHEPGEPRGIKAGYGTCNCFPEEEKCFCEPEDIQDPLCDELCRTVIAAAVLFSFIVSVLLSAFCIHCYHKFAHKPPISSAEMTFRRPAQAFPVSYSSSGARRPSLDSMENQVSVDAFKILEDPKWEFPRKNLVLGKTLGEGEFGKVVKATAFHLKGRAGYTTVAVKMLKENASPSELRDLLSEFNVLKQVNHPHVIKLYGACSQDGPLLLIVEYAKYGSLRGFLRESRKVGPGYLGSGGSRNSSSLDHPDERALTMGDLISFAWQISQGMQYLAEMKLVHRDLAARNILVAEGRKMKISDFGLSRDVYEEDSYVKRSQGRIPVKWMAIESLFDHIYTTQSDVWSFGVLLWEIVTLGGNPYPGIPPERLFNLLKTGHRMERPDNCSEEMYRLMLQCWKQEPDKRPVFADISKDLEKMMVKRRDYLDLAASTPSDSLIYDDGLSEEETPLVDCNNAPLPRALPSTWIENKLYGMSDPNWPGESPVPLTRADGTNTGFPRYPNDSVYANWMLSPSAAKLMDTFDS", "assay": "cell-based"}
{"smiles": "CCOc1cc(-c2ccc(N3C[C@H]4C[C@@H](C3)[C@H]4Nc3nc(C)ccc3F)nc2)c2c(C#N)cnn2c1", "note": "[Example 377, 6-ethoxy-4-(6-((1R,5 S,6r)-6-((3-fluoro-6-methylpyridin-2-yl)amino)-3-azabicyclo[3.1.1]heptan-3-yl)pyridin-3-yl)pyrazolo[1,5-a]pyridine-3-carbonitrile]", "values": [{"measurement": "IC50", "value": 39.4, "unit": "nM"}]}
